# Measured values taken from patent publication US8435992B2, “Multiple myeloma treatments” (Pharma Mar S.A., priority 2008, dated 2013).
# Assays:
# [1] = tested on: MM1S; test: MTT viability assay, MM cell line panel; format: cell-based, human
# Procedure: (§1) Antitumor activity of PM00104 in MM was evaluated by using a cell line panel comprising the following 9 MM cell lines: MM1S, MM1R, MM144, RPMI8226, RPMI-LR5, U266, U266-LR7, OPM-1, and OPM-2. These cell lines were grown in RPMI 1640 medium with L-glutamine supplemented with antibiotics (penicillin at 100 U/mL, streptomycin at 100 μg/mL) and 10% fetal bovine serum (FBS) at 37° C. in a humidified atmosphere in the presence of 5% CO2-95% air.
# (§2) Cell lines were treated with increasing concentrations of the PM00104 (0.1-50 nM) for 24, 48 and 72 hours, and viability was analyzed by using 3-(4,5-dimethylthiazol-2-yl)-2,5-diphenyltetrazolium bromide (MTT) colorimetric assay. Briefly, MM cell lines were seeded at a density of 50,000 cells/200 […] medium per well in 48-well plates, and treated with a determined drug dose and time. Two hours before the end of the treatment, a MTT solution (5 mg/mL) in PBS) was added and the tetrazolium salt was reduced by metabolically active cells to coloured formazan crystals. After solubilization of these crystals by overnight incubation with 10% SDS-HCl solution, absorbance was measured at 570 nm with correction at 630 nm. Results are presented as the mean±SD of quadruplicates of an experiment that was repeated at least twice.
# [2] = tested on: MM144; test: MTT viability assay, MM cell line panel; format: cell-based
# Procedure: as §1, §2
# [3] = tested on: MM1R; test: MTT viability assay, MM cell line panel; format: cell-based
# Procedure: as §1, §2
# [4] = tested on: OPM-1; test: MTT viability assay, MM cell line panel; format: cell-based; settings: Homo sapiens; OPM-1, MTT, 48 hours
# Procedure: as §1, §2
# [5] = tested on: OPM-2; test: MTT viability assay, MM cell line panel; format: cell-based; settings: Homo sapiens; OPM-2, MTT, 48 hours
# Procedure: as §1, §2
# [6] = tested on: RPMI-LR5; test: MTT viability assay, MM cell line panel; format: cell-based; settings: RPMI-LR5 (melphalan resistant), 48 hours
# Procedure: as §1, §2
# [7] = tested on: RPMI8226; test: MTT viability assay, MM cell line panel; format: cell-based; settings: Homo sapiens, RPMI-8226, 48 hours
# Procedure: as §1, §2
# [8] = tested on: U266-LR7; test: MTT viability assay, MM cell line panel; format: cell-based; settings: U266-LR7 (melphalan resistant), 48 hours
# Procedure: as §1, §2
# [9] = tested on: U266; test: MTT viability assay, MM cell line panel; format: cell-based; settings: Homo sapiens, U-266, 48 hours
# Procedure: as §1, §2
# [10] = tested on: myelomatous plasma cells from bone marrow samples of MM patients; test: Ex vivo apoptosis (Annexin V) in bone marrow cells from MM patients; format: cell-based, human; settings: 1-50 nM, 18 hours
# Procedure: FIG. 2. Freshly isolated bone marrow cells obtained from six MM patients were treated ex vivo with PM00104 (1-50 nM) for 18 hours. After the incubation period, cells were stained with the combination of Annexin V-FITC, and three monoclonal antibodies against plasma cell surface antigens (CD38, CD56 and CD45) which allow the analysis of the induction of apoptosis in the myelomatous population. Results are given as the percentage of Annexin V positive cells related to the percentage of viable cells in the untreated sample.
# Additionally, the effect of PM00104 was further investigated ex vivo in cells isolated from bone marrow (BM) samples obtained from six patients with MM. Samples were lysed with ammonium chloride in order to remove red blood cells, and white cells were maintained in RPMI-1640 containing antibiotics (penicillin 100 U/ml, streptomycin 100 μg/ml) and 20% FBS. […] A total of 50,000 cells were acquired on a FACScalibur flow cytometer (BD Biosciences) and analyzed with the “Paint-a-Gate” program. Apoptosis was analyzed based on the Annexin-V positivity in the different populations: tumour PCs as well as in normal residual lymphocytes and granulo-monocytes. The percentage of Annexin V positive cells after treatment with PM00104 was calculated over the Annexin V negative cells (viable cells) in the control samples (without treatment).
# [11] = tested on: MM1S cells; test: BrdU uptake of MM1S cells with IL-6, IGF-I or co-cultured BMSCs; format: cell-based, human; settings: 48 hours
# Procedure: (§3) FIG. 3. PM00104 overcomes the protective effects of IL-6, IGF-I, and adherence to patient BMSCs. MM1S cells were treated for 48 hours with indicated concentrations of PM00104 in the presence or absence of IL-6 (FIG. 3A), IGF-I (FIG. 3B), or BMSCs derived from a MM patient (FIG. 3C). DNA synthesis was determined by measuring BrdU incorporation during the last 8 hours of 48-hour cultures. Additionally, BMSCs were cultured with different doses of PM00104 for 48 hours and the cytotoxicity was analyzed by MTT assay (FIG. 3D). Data is presented as the mean±SD of quadruplicates.
# The presence of the BM microenvironment confers protection to MM through their adhesion or through the production of several cytokines such as IL-6 or IGF-I. In order to test whether PM00104 was able to inhibit this protective effect of the BM microenvironment, MM1S cells were incubated with IL-6 (1 nM) or IGF-I (10 nM), or co-cultured with BM stromal cells (BMSCs) for 48 hours, and then treated with increasing concentrations of PM00104. BMSCs were plated in 96-well culture dishes (50,000 cells/well) and allowed to reach confluence during 48 hours. Then, 30,000 myeloma cells were plated in RPMI 1640 containing 10% serum. Proliferation of MM cells was then assessed by Bromodeoxyuridine (BrdU) uptake (Maiso P et al. Br. J. Haematol. 2008, 141, 470-482). BrdU was added for the last 8 hours, and BrdU uptake was measured using a commercial kit (Roche Biochemicals), following the manufacturer's instructions.
# [12] = tested on: BMSCs derived from a MM patient; test: MTT cytotoxicity on BMSCs; format: cell-based, human; settings: 48 hours
# Procedure: as §3
# [13] = tested on: MM1S plasmocytomas; test: Human plasmocytoma xenograft in CB17-SCID mice (MM1S); format: in vivo; settings: for tumor volume (mean±SD): after 15 days of treatment
# Procedure: (§4) The in vivo efficacy of PM00104 was studied in a model of human plasmocytoma xenografted in CB17-SCID mice. These experiments were performed using the very sensitive cell line MM1S and the less sensitive one OPM-1. Two cohorts of thirty mice were subcutaneously injected with each cell line and mice were randomized into three groups receiving vehicle alone, 0.8 mg/kg of PM00104, or 1 mg/Kg PM00104 intravenously (iv) once weekly for three doses.
# (§5) CB17-SCID mice (The Jackson Laboratory, Bar Harbor, Me., USA) were subcutaneously inoculated into the right flank with 3×10^6 MM1S or OPM1 cells in 100 μL of RPMI-1640 medium and 100 μL of Matrigel (Becton Dickinson). When tumours became palpable, mice received PM00104 or vehicle alone. Treatment with PM00104 was given iv, at doses of 0.8 mg/kg and 1 mg/kg once weekly for three doses. The control group received the vehicle alone (sterile water for injection plus saline).
# (§6) Caliper measurements of the tumour diameters were performed every day, and the tumour volume was estimated as the volume of an ellipse using the following formula: V=4/3π×(a/2)×(b/2)^2, where “a” and “b” correspond to the longest and shortest diameter, respectively. Animals were euthanized when their tumours reached 2 cm. Differences in tumour volumes between treated and control groups were evaluated using 1-way analysis of variance and Bonferroni post hoc tests. Survival was estimated from the day of initiation of treatment, and statistical differences were assessed by Kaplan-Meier curves with the Log Rank test. Statistical analyses were performed with the SPSS-15.0 software (SPSS Inc. Chicago, Ill., USA) and statistical significance was defined as p<0.05.
# [14] = tested on: OPM-1 plasmocytomas; test: Human plasmocytoma xenograft in CB17-SCID mice (OPM-1); format: in vivo; settings: for tumor volume (mean±SD): after 14 days of treatment
# Procedure: as §4, §5, §6
# [15] = Systemic toxicity and body weight in xenografted mice; format: in vivo
# Procedure: as §4, §5
# [16] = tested on: MM1S cells; test: Combination with antimyeloma agents, MTT assay, Chou Talalay combination index; format: cell-based, human; settings: 72 hours; for combination index (CI): Chou and Talalay method
# Procedure: FIG. 5. PM00104 potentiates the antimyeloma action of conventional and novel antimyeloma agents. MM1S cells were treated with suboptimal concentrations of PM00104 (Zalypsis, Z) and other antimyeloma agents such as Dexamethasone (Dex), melphalan (Mel), doxorubicin (Dox), bortezomib (Bort) and lenalidomide (Len) in double (FIG. 5A) and triple combinations (FIG. 5B). Cell viability was analyzed by MTT assay.
# MM1S cells were treated for 72 hours, as described in example 1, with combinations of suboptimal doses of PM00104 and other antimyeloma agents such as dexamethasone, melphalan, doxorubicin, bortezomib and lenalidomide, in double and triple combinations. Cell viability was analyzed by MTT assay as described in example 1. The potency of the combination was quantified with the Calcusyn software (Biosoft, Ferguson, Mo.), which is based in the Chou Talalay method, that calculates a combination index (CI) with the following interpretation: CI>1: antagonistic effect, CI=1: additivity and CI<1 synergistic effect.
# [17] = 0.8 mg/kg iv once weekly for three doses
# [18] = 1 mg/kg iv once weekly for three doses
# [19] = OPM-1, 0.8 mg/kg iv once weekly for three doses
# [20] = OPM-1, 1 mg/kg iv once weekly for three doses
smiles,measurement,setting,value
COc1c(C)cc2c(c1O)[C@@H]1[C@@H]3Cc4c(OC(C)=O)c(C)c5c(c4[C@H](CNC(=O)/C=C/c4cccc(C(F)(F)F)c4)N3[C@@H](O)[C@H](C2)N1C)OCO5 [PM00104],IC50 at 48 hours,[1],picomolar concentrations
same,IC50 at 48 hours,[2],picomolar concentrations
same,IC50 at 48 hours,[3],picomolar concentrations
same,IC50,[4],1 to 2 nM
same,IC50,[5],1 to 2 nM
same,IC50,[6],1 to 2 nM
same,IC50,[7],1 to 2 nM
same,IC50,[8],1 to 2 nM
same,IC50,[9],1 to 2 nM
same,sensitivity of patient samples (Annexin V positive cells),"[10]; four out of six samples (patients 1, 6, 3 and 5)",very sensitive to low concentrations
same,sensitivity of patient samples (Annexin V positive cells),"[10]; patient 4, secondary plasma cell leukemia",intermediate sensitivity
same,effect on protective effect due to adhesion of plasma cells to BMSCs (BrdU uptake),[11]; MM1S co-cultured with BMSCs,largely inhibited
same,effect on proliferative advantage conferred by IGF-I (BrdU uptake),"[11]; MM1S, IGF-I 10 nM",completely abrogated
same,effect on proliferative advantage conferred by IL-6 (BrdU uptake),"[11]; MM1S, IL-6 1 nM",completely abrogated
same,cytotoxic effect on BMSCs,[12],very resistant
same,median±SE survival,[13]; [17],52 ± 4.8 days
same,tumor volume (mean±SD),[13]; [17],420±242 mm^3
same,median±SE survival,[13]; [18],59 ± 5.5 days
same,tumor volume (mean±SD),[13]; [18],176±78 mm^3
same,median±SE survival,[14]; [19],21 ± 0.8 days
same,tumor volume (mean±SD),[14]; [19],1879±731 mm^3
same,median±SE survival,[14]; [20],23 ± 1.1 days
same,tumor volume (mean±SD),[14]; [20],1042±596 mm^3
same,systemic toxicity,[15]; 0.8 and 1 mg/kg iv once weekly for three doses,no significant systemic toxicity
same,weight loss (of body weight as compared to the controls),[15]; highest of PM00104 doses,around 10%
same,effect of combination on cell viability,[16]; with bortezomib,promising additive/synergistic results
same,efficacy of triple combination vs respective double combinations,[16]; with dexamethasone + doxorubicin,significantly improved the efficacy
same,efficacy of triple combination vs respective double combinations,[16]; with dexamethasone + lenalidomide,significantly improved the efficacy
same,efficacy of triple combination vs respective double combinations,[16]; with dexamethasone + melphalan,significantly improved the efficacy
same,combination index (CI),[16]; with dexamethasone,0.78
same,combination index (CI),[16]; with doxorubicin,0.64
same,combination index (CI),[16]; with lenalidomide,0.55
same,combination index (CI),[16]; with melphalan,0.48
